Laboratory results published in ChEMBL document CHEMBL5226276, “Molecules with versatile biological activities bearing antipyrinyl nucleus as pharmacophore” (Eur J Med Chem, 2020).
In brackets after ≈: the same amount, converted by molar mass.

Tests used:
[1] = tested on: Staphylococcus aureus; experiment: Antimicrobial activity against Staphylococcus aureus assessed as inhibition of microbial growth incubated for 24 hrs by well dilution assay based UV-Vis spectroscopy; format: functional
[2] = tested on: Escherichia coli; experiment: Antimicrobial activity against Escherichia coli assessed as inhibition of microbial growth incubated for 24 hrs by well dilution assay based UV-Vis spectroscopy; format: functional
[3] = tested on: Klebsiella pneumoniae; experiment: Antimicrobial activity against Klebsiella pneumoniae assessed as inhibition of microbial growth incubated for 24 hrs by well dilution assay based UV-Vis spectroscopy; format: functional
[4] = tested on: Proteus vulgaris; experiment: Antimicrobial activity against Proteus vulgaris assessed as inhibition of microbial growth incubated for 24 hrs by well dilution assay based UV-Vis spectroscopy; format: functional
[5] = tested on: Pseudomonas aeruginosa; experiment: Antimicrobial activity against Pseudomonas aeruginosa assessed as inhibition of microbial growth incubated for 24 hrs by well dilution assay based UV-Vis spectroscopy; format: functional
[6] = tested on: Aspergillus niger; experiment: Antimicrobial activity against Aspergillus niger assessed as inhibition of microbial growth incubated for 48 hrs by well dilution assay based UV-Vis spectroscopy; format: functional
[7] = tested on: Macrophomina phaseolina; experiment: Antimicrobial activity against Macrophomina phaseolina assessed as inhibition of microbial growth incubated for 48 hrs by well dilution assay based UV-Vis spectroscopy; format: functional
[8] = tested on: Candida albicans; experiment: Antimicrobial activity against Candida albicans assessed as inhibition of microbial growth incubated for 48 hrs by well dilution assay based UV-Vis spectroscopy; format: functional
[9] = tested on: Rhizopus stolonifer; experiment: Antimicrobial activity against Rhizopus stolonifer assessed as inhibition of microbial growth incubated for 48 hrs by well dilution assay based UV-Vis spectroscopy; format: functional
[10] = tested on: Aspergillus flavus; experiment: Antimicrobial activity against Aspergillus flavus assessed as inhibition of microbial growth incubated for 48 hrs by well dilution assay based UV-Vis spectroscopy; format: functional
[11] = tested on: Bacillus cereus; experiment: Antibacterial activity against Bacillus cereus assessed as inhibition of bacterial growth incubated for 24 hrs by filter paper disc diffusion assay; format: functional
[12] = tested on: Salmonella typhimurium; experiment: Antibacterial activity against Salmonella enterica subsp. enterica serovar Typhimurium assessed as inhibition of bacterial growth incubated for 24 hrs by filter paper disc diffusion assay; format: functional
[13] = tested on: Mycobacterium tuberculosis; experiment: Antimycobacterial activity against Mycobacterium tuberculosis H37Rv assessed as inhibition of bacterial growth at 1.56 to 100 ug/ml incubated for 6 days by alamar blue dye based broth microdilution assay; format: functional; details: dose 1.56-100 µg/ml; time 6 day; at 1.56 to 100 µg/mL
[14] = Toxicity in brine shrimp assessed as lethal dose incubated for 24 hrs; details: artemia salina
[15] = tested on: Mycobacterium tuberculosis; experiment: Antimycobacterial activity against Mycobacterium tuberculosis H37Rv assessed as inhibition of bacterial growth incubated for 6 days by alamar blue dye based broth microdilution assay; format: functional; details: time 6 day
[16] = Antioxidant activity assessed as DPPH radical scavenging activity by spectrophotometric assay; format: functional
[17] = Antioxidant activity assessed as DPPH radical scavenging activity incubated for 30 mins under dark condition by spectrophotometric assay; format: functional
[18] = Antioxidant activity assessed as DPPH radical scavenging activity; format: functional
[19] = Antioxidant activity assessed as DPPH radical scavenging activity incubated for 30 mins under dark condition; format: functional

SMILES: Cc1c(/N=C/c2ccco2)/c(=N\c2ccc(O)cc2)n(-c2ccccc2)n1C
- MIC [1]: 16 µg/mL
- MIC [2]: 16 µg/mL
- MIC [3]: 16 µg/mL
- MIC [4]: 16 µg/mL
- MIC [5]: 16 µg/mL
- MIC [6]: 6 µg/mL
- MIC [7]: 6 µg/mL
- MIC [8]: 6 µg/mL
- MIC [9]: 6 µg/mL
- MIC [10]: 6 µg/mL

SMILES: Cc1c(/N=C/c2ccco2)/c(=N\c2ccccc2)n(-c2ccccc2)n1C
- MIC [1]: 16 µg/mL
- MIC [2]: 16 µg/mL
- MIC [3]: 16 µg/mL
- MIC [4]: 16 µg/mL
- MIC [5]: 16 µg/mL
- MIC [6]: 6 µg/mL
- MIC [7]: 6 µg/mL
- MIC [8]: 6 µg/mL
- MIC [9]: 6 µg/mL
- MIC [10]: 6 µg/mL

SMILES: COc1ccccc1/C=N/c1c(C)n(C)n(-c2ccccc2)c1=O
- MIC [11]: 12.5 µg/mL (≈ 38.9 µM)
- MIC [12]: 50 µg/mL (≈ 156 µM)

SMILES: Cc1c(/N=C/c2ccco2)/c(=N\c2ccc([N+](=O)[O-])cc2)n(-c2ccccc2)n1C
- MIC [1]: 16 µg/mL
- MIC [2]: 16 µg/mL
- MIC [3]: 16 µg/mL
- MIC [4]: 16 µg/mL
- MIC [5]: 16 µg/mL
- MIC [6]: 6 µg/mL
- MIC [7]: 6 µg/mL
- MIC [8]: 6 µg/mL
- MIC [9]: 6 µg/mL
- MIC [10]: 6 µg/mL

SMILES: Cc1c(/N=C/c2cccc(F)c2)/c(=N\Nc2nc(-c3ccccc3)cs2)n(-c2ccccc2)n1C
- inhibition (INH) [13]: 90%

SMILES: Cc1c(/N=C/c2ccccc2Cl)/c(=N\Nc2nc(-c3ccccc3)cs2)n(-c2ccccc2)n1C
- inhibition (INH) [13]: 90%

SMILES: Cc1c(/N=C/c2ccc(O)c(O)c2)c(=O)n(-c2ccccc2)n1C
- LC50 [14]: 481 ppm

SMILES: O=C(O)c1cc(O)c(O)c(O)c1 [GALLIC ACID]
- LC50 [14]: 78 ppm

SMILES: Cc1c(/N=C/c2ccc(O)cc2)/c(=N\Nc2nc(-c3ccccc3)cs2)n(-c2ccccc2)n1C
- inhibition (INH) [13]: 90%

SMILES: COc1cccc(-c2csc(N/N=c3\c(/N=C/c4ccccc4)c(C)n(C)n3-c3ccccc3)n2)c1
- inhibition (INH) [13]: 90%

SMILES: Cc1c(/N=C/c2ccccc2)/c(=N\Nc2nc(-c3ccc(O)cc3O)cs2)n(-c2ccccc2)n1C
- inhibition (INH) [13]: 90%
- MIC [15]: 0.648 10^-3micromol/ml

SMILES: Cc1c(/N=C/c2ccc(O)cc2O)c(=O)n(-c2ccccc2)n1C
- LC50 [14]: 581 ppm

SMILES: COc1cc(-c2csc(N/N=c3\c(/N=C/c4ccccc4)c(C)n(C)n3-c3ccccc3)n2)ccc1O
- inhibition (INH) [13]: 90%

SMILES: Cc1c(/N=C/c2ccccc2)/c(=N\Nc2nc(-c3ccc(O)c(O)c3)cs2)n(-c2ccccc2)n1C
- inhibition (INH) [13]: 90%

SMILES: Cc1c(/N=C/c2ccccc2)/c(=N\Nc2nc(-c3ccc([N+](=O)[O-])cc3)cs2)n(-c2ccccc2)n1C
- inhibition (INH) [13]: 90%

SMILES: COc1ccccc1/N=N/c1ccc(O)c2ncccc12
- IC50 [16]: 72 µg/mL (≈ 258 µM)

SMILES: Cc1c(/N=C/c2ccccc2)/c(=N\Nc2nc(-c3ccc(N(C)C)cc3)cs2)n(-c2ccccc2)n1C
- inhibition (INH) [13]: 90%

SMILES: Cc1c(/N=C/c2ccc(Cl)cc2)/c(=N\Nc2nc(-c3ccccc3)cs2)n(-c2ccccc2)n1C
- inhibition (INH) [13]: 90%

SMILES: Cc1c(/N=C/c2cccc(Cl)c2)/c(=N\Nc2nc(-c3ccccc3)cs2)n(-c2ccccc2)n1C
- inhibition (INH) [13]: 90%

SMILES: Cc1cc(C(C)(C)C)c(O)c(C(C)(C)C)c1 [BUTYLATED HYDROXYTOLUENE]
- IC50 [16]: 31 µg/mL (≈ 141 µM)
- IC50 [17]: 32 µg/mL (≈ 145 µM)
- IC50 [18]: 32 µg/mL (≈ 145 µM)

SMILES: Cc1c(/N=C/c2ccccc2)c(=O)n(-c2ccccc2)n1C
- IC50 [19]: 31.3 µM

SMILES: Cc1c(/N=C/c2ccc(Cl)cc2)c(=O)n(-c2ccccc2)n1C
- LC50 [14]: 225 ppm

SMILES: Cc1c(/N=C/c2ccccc2)/c(=N\Nc2nc(-c3ccccc3)cs2)n(-c2ccccc2)n1C
- inhibition (INH) [13]: 90%
